Here are results for 2 molecules from patent US20120308537A1, “Use Of Collagen Type VII For Maintaining And Re-Inducing Osteogenic Abilities Of Mesenchymal Stem Cells” (UNIVERSITY OF SOUTHERN CALIFORNIA, priority 2009, published 2012).

Experiment [1] concerns human MSCs. The experiment in a line: Alizarin red (AR) staining of MSCs in osteogenic medium (calcium accumulation and mineralization). The experiment is classed as cell-based. The procedure: Alizarin red (AR) staining is normally used to determine the calcium accumulation and mineralization that are associated with bone formation. Cells in the tissue culture dishes labeled C7 were incubated with osteogenic induction medium containing 1.0 μg/ml of C7. Cells in the tissue culture dishes labelled OST were incubated with osteogenic induction medium alone (controls).
FIG. 3A is the scanned image of Alizarin red staining (top) and its quantification (bottom).
FIG. 3B is the scanned image of Alizarin red staining (top) and its quantification (bottom). […] The results represent mean values+/−standard deviation from experiments performed in triplicates. Note that MSCs only need to be exposed to 0.6 μg/ml of C7 during days 8-12 to attain optimal osteogenic induction.
For these experiments, plated MSCs were plated at 3×10^5/per well on 6-well plates in MSC growth medium containing α-MEM containing 16.7% Premium FBS (Atlanta Biologicals Cat# S11550), and 2 mM L-Glutamine. After the cells reached 70% confluency, the medium was changed to osteogenic induction medium with or without 0.6 μg/ml C7 added at the time period indicated above.
Here the MSCs were treated with 4 μg/ml of NC1 for 21 days in an osteogenic medium. Results represent mean values+/−standard deviation from experiments performed in triplicates.
(§1) FIG. 9A is a scanned image of Alizarin staining (left) and its quantification (right). Here the MSCs were treated with 1.0 μg/ml C7 or 1.0 μg/ml C7 and 15 μM U0126 in the presence of an osteogenic medium for 21 days. In FIG. 9B, MSCs were cultured as in FIG. 9A. RNAs were collected after 14 days and subjected to RT-PCR analysis for early osteogenic gene markers. Results for staining represent mean values+/−standard deviation from experiments performed in quadruplicate. RT-PCR results represented the mean+/−standard deviation of duplicate experiments with PCR performed in triplicates. The […] inhibitor abolished C7-induced calcium deposition and expression of early osteogenic gene markers.

Experiment [2] has as its system p-ERK (Ras-ERK signaling pathway). As to the kind of experiment: Immunoblot analysis of ERK phosphorylation in MSCs under osteogenic conditions. The class given is cell-based, human. The procedure: (§2) In this experiment, cells were serum starved for 48 hours and then stimulated with osteogenic medium in the absence or presence of 1.0 μg/ml C7. Cellular extracts were prepared at the times indicated and then subjected to immunoblot analysis with antibodies shown above. Total ERK and paxillin are included to indicate equal protein loading.
In this experiment, cells were pretreated with the respective inhibitor for 1 hour before addition of 1.0 μg/ml C7. Regular ERK is included as a control for equal protein loading.
Background: Immunoblotting shows a protein as a band on a membrane.

The subject of experiment [3] is ALP, Runx2, BSP, OCN mRNA in MSCs. As to the kind of experiment: Real-Time PCR analysis of osteogenic-specific gene expression in MSCs. The class given is cell-based, human. The protocol: In this experiment, MSCs were cultured in 6-well plates in growth medium until they reached confluence. Then, they were switched to osteogenic medium. Respective wells were treated with 1.0 μg/ml C7 until the indicated harvest days. Equal amounts of RNA were reverse transcribed and the mRNA levels of the indicated genes were analyzed using SYBR green master mix and primers for alkaline phosphotase (ALP), Runx2, bone sialoprotein (BSP), and osteocalcin (OCN). Data were normalized to house keeping gene GAPDH and expressed as fold-changes relative to 7D untreated cells. Results represent the mean+/−standard deviation of duplicate experiments with PCR performed in triplicates.
as §1
A general note: Quantitative PCR measures a nucleic acid by following its amplification.

For the next experiment, the system named is p-P38. As to the kind of experiment: Immunoblot analysis of P38 phosphorylation in MSCs under osteogenic conditions. The class given is cell-based, human. The settings on record: 1.0 μg/ml C7; serum starved 48 hours. The procedure:
as §2

In experiment [4] the test system is ectopic osteogenesis induction. The experiment in a line: ALP assay of ectopic osteogenesis induction, intramuscular implantation in rat. The class given is in vivo. The settings on record: 4 weeks. The protocol:
(§3) The negative control was carrier only, which consisted of collagen sponge (bovine). The samples were administered to rat via intramuscular implantation on ectopic sites. The experiment lasted for 4 weeks. Two different preparations (C7 and C7′) were tested. The test dosages were: 10, 20 and 40 μg. The results were analyzed by alkaline phosphotase assay (ALP) and histology for bone formation.

The subject of another experiment is MSCs. As to the kind of experiment: Inducing and maintaining the osteogenicity of MSCs by C7 fragments (general statement). The class given is cell-based. The settings on record: fragments of C7 containing the CMP subdomain.
A further experiment deals with late passage MSCs. The experiment in a line: Alizarin red staining of late passage MSCs (exogenous C7 or lentiviral C7 over-expression). The experiment is classed as cell-based, human. The protocol: FIG. 5A is the scanned image of Alizarin red staining (top) and its quantification (bottom). Late passage MSCs (passage 8) were treated with 1.0 μg/ml of C7 in the presence of an osteogenic medium for 21 days.
FIG. 5B is the scanned image of Alizarin red staining (top) and its quantification (bottom). Late passage MSCs infected with lentiviral vectors expressing either green fluorescence protein (GFP) or C7 were subjected to osteogenic medium for 21 days. Results represent mean values+/−standard deviation from experiments performed in triplicates.
For these experiments, MSCs from passage 3 were infected with lentiviral vectors expressing either GFP or C7 and cultured for an additional 7 passages. Then infected MSCs (passage 10) were plated at 6 well-plates and then subjected to osteogenic induction medium.

In experiment [5] the test system is human MSCs. As to the kind of experiment: Alkaline phosphotase (ALP) staining of MSCs in osteogenic medium. The experiment is classed as cell-based. The settings on record: 1.0 μg/ml C7, 14 days in osteogenic medium, vs osteogenic medium alone. The procedure: ALP measures the expression of a key marker enzyme that is needed for bone formation. The tissue culture dishes labeled C7 were treated with 1.0 μg/ml C7 whereas dishes label OST were the controls. The cells were incubated in an osteogenic medium for 14 days.

Experiment [6] concerns ectopic osteogenesis induction. The experiment in a line: Histology analysis of ectopic osteogenesis induction (bone formation), intramuscular implantation in rat. The class given is in vivo. The settings on record: 4 weeks. The procedure:
as §3

The mark [7] stands for this setting: 1.0 μg/ml C7 and 15 μM U0126, 14 days.
Setting [8] is: 1.0 μg/ml C7, normalized to GAPDH.

For `N#CC(=C(/N)Sc1ccccc1N)/C(C#N)=C(\N)Sc1ccccc1N` [U0126, reference compound], the “AR staining of C7-treated MSCs (C7-mediated osteogenic induction)” value in the experiment with human MSCs [1] (1.0 μg/ml C7 and 15 μM U0126, 21 days) was “reduced”. Besides, in experiment [2] (pretreated with inhibitor 1 hour before 1.0 μg/ml C7, proteins collected after 1 hour), the “effect of inhibitor on C7-mediated induction of p-ERK” value was “Abrogated”. In experiment [3] (setting [7]), the “mRNA expression of ALP in C7-treated MSCs” value was “reduced” and the “mRNA expression of BSP in C7-treated MSCs” value is “reduced”.

As for type VII collagen [C7], the “osteogenic potential of human MSCs as measured by Alizarin red activity” value with human MSCs [1] (1.0 μg/ml C7, 21 days in osteogenic medium, vs osteogenic medium alone) is “significantly enhances”. In the experiment on human MSCs [1] (exposure during days 8-12 only, osteogenic medium 21 days), the “concentration needed to attain optimal osteogenic induction” value worked out at 0.6 µg/mL. The “production of p-ERK” value in experiment [2] (1.0 μg/ml C7, as early as 10 minutes, sustained up to 1 hour, serum starved 48 hours) is “increased”. In addition, the “level of p-P38” value in the experiment with p-P38 was “remained unchanged”. In addition, the ALP is recorded as 0.257 in experiment [4] (10 ug C7 or C7′ + 1 ug BMP-2); 0.094 in experiment [4] (10 ug C7 or C7′, no BMP-2, collagen sponge, intramuscular ectopic site); 0.384 in experiment [4] (20 ug C7 or C7′ + 1 ug BMP-2); 0.094 in experiment [4] (20 ug C7 or C7′, no BMP-2); 0.092 in [4] (40 ug C7 or C7′, no BMP-2). Also, the ALP/Pro in experiment [4] (10 ug C7 or C7′ + 1 ug BMP-2) came to 2.360; in experiment [4] (10 ug C7 or C7′, no BMP-2), 0.517; in experiment [4] (20 ug C7 or C7′ + 1 ug BMP-2) it was 1.893; in experiment [4] (20 ug C7 or C7′, no BMP-2) it was 0.500; in experiment [4] (40 ug C7 or C7′, no BMP-2), 0.364. Also, in experiment [3] (setting [8]), the “ALP mRNA expression (early osteogenic marker)” value is recorded as “upregulates”. Besides, the “BSP mRNA expression (early osteogenic marker)” value in [3] (setting [8]) is given as “upregulates”. Further, the “OCN mRNA expression (late osteogenic marker)” value in [3] (setting [8]) was “upregulates”. In addition, in experiment [3] (setting [8]), the “Runx2 mRNA expression (early osteogenic marker)” value is listed as “upregulates”. The “effectiveness in inducing and maintaining the osteogenicity of MSCs” value in the experiment on MSCs is “relatively effective”. For the same molecule, the “restoring osteogenic potential of late passage MSCs (Alizarin red)” value is “capable of restoring” with late passage MSCs (exogenous addition, 1.0 μg/ml C7, passage 8, 21 days) and “capable of restoring” in the experiment with late passage MSCs (over-expression by lentiviral vector vs GFP, passage 10, 21 days). In addition, in the experiment on human MSCs [5], the “osteogenic potential of human MSCs as measured by ALP activity” value is listed as “significantly enhances”. The Bone score in experiment [6] (10 ug C7 or C7′ + 1 ug BMP-2) came out at 3; in experiment [6] (10 ug C7 or C7′, no BMP-2), 0; in [6] (20 ug C7 or C7′ + 1 ug BMP-2), 0; in experiment [6] (20 ug C7 or C7′, no BMP-2), 0; in [6] (40 ug C7 or C7′, no BMP-2) it was 0. In experiment [6] (low dosage 10 μg with BMP-2, rat intramuscular implantation), the “BMP-2-mediated bone induction (ALP assay and histology)” value is recorded as “significantly enhance”.
